From PubChem BioAssay (NCI) come the findings set out here.

Some test systems named below: MALME-3M melanoma; SK-MEL-2 melanoma; ACHN renal; HOP-18 NSCLC; OVCAR-5 ovarian; DMS 114 small cell lung; OVCAR-8 ovarian; CAKI-1 renal.
What all share (assay): NCI-60 cell line screen, 48 h

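The compound was tested at five concentrations on cells cultured in 96-well plates, with a 48-hour exposure period. At the GI50, growth is halved. TGI marks complete inhibition of growth.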

Consider `CC(=O)Nc1ccc(/C=C2\N=C(c3ccccc3)OC2=O)cc1`, for which the TGI in the assay on MALME-3M melanoma, with SK-MEL-2 melanoma, in the assay with ACHN renal, with HOP-18 NSCLC, in the assay with OVCAR-5 ovarian and in the assay with DMS 114 small cell lung was over 100 µM throughout.

For the compound `COc1ccc2c(c1)[n+](=O)c(C(=O)C/C(=N/NC(=O)C[N+](C)(C)C)C(=O)Nc1cccc(C)c1C)c(C)n2O`, the TGI in the assay with MALME-3M melanoma, in the assay with SK-MEL-2 melanoma, in the assay on ACHN renal, in the assay with HOP-18 NSCLC, in the assay with OVCAR-8 ovarian and in the assay with OVCAR-5 ovarian was over 100 µM each time. The TGI with DMS 114 small cell lung and in the assay with CAKI-1 renal was over 100 µM in each case.

`O=C(N/C(=C\c1ccccc1Cl)c1nc2ccccc2[nH]1)c1ccccc1`: the TGI with MALME-3M melanoma was 74.8 µM; in the assay with SK-MEL-2 melanoma, 51.8 µM; with ACHN renal it was over 100 µM; with OVCAR-8 ovarian it was over 100 µM; in the assay on OVCAR-5 ovarian, over 100 µM; in the assay with DMS 114 small cell lung, over 100 µM. The compound further registered a TGI with CAKI-1 renal of over 100 µM.

Take `CC(=O)[CH-]C(=O)c1ccccc1.CC(=O)[CH-]C(=O)c1ccccc1.CC(C)CCC[C@H](C)C1CCC2[C@@H]3CC=C4C[C@@H]([O-])CC[C@]4(C)C3CC[C@@]21C.CC(C)CCC[C@H](C)C1CCC2[C@@H]3CC=C4C[C@@H]([O-])CC[C@]4(C)C3CC[C@@]21C.Cl.[Ti+4]` (stereo partly specified): the GI50 was 21.4 µM in the assay with MALME-3M melanoma; over 25 µM in the assay on SK-MEL-2 melanoma; over 25 µM in the assay on ACHN renal; over 25 µM in the assay with HOP-18 NSCLC; over 25 µM in the assay on OVCAR-8 ovarian; over 25 µM in the assay with OVCAR-5 ovarian. For the same compound, in the assay with CAKI-1 renal, the GI50 is over 25 µM. Besides, the TGI with MALME-3M melanoma, with SK-MEL-2 melanoma, with ACHN renal, with HOP-18 NSCLC, in the assay with OVCAR-8 ovarian and in the assay on OVCAR-5 ovarian was over 25 µM in each case. Besides, in the assay on CAKI-1 renal, the TGI is over 25 µM.

Take `CC(=O)OCC1OC(OCc2ccccc2)C(Br)C(OC(C)=O)C1OC(C)=O` (stereo unspecified): the TGI in the assay on MALME-3M melanoma, in the assay with ACHN renal, in the assay on HOP-18 NSCLC, in the assay with OVCAR-8 ovarian, with OVCAR-5 ovarian and with CAKI-1 renal was over 100 µM each time.

For the compound `CC1CCC(=O)C(C(O)CC2CC(=O)N(c3ccccc3)C(=O)C2)C1` (stereo unspecified), the TGI in the assay with MALME-3M melanoma, in the assay with ACHN renal, in the assay on HOP-18 NSCLC, in the assay with OVCAR-8 ovarian, in the assay on OVCAR-5 ovarian and in the assay on DMS 114 small cell lung was over 100 µM each time. In addition, in the assay on CAKI-1 renal, the TGI was over 100 µM.

On to `CN(C)CCn1cnc2ncccc2c1=O`, for which the TGI with MALME-3M melanoma, in the assay with SK-MEL-2 melanoma, in the assay with ACHN renal, in the assay on OVCAR-8 ovarian, with OVCAR-5 ovarian and in the assay with DMS 114 small cell lung was over 100 µM each time. Also, the TGI with CAKI-1 renal was over 100 µM.

Regarding `O=C(CO[N+](=O)[O-])OC/C=C/c1ccccc1`, the TGI in the assay with MALME-3M melanoma, with SK-MEL-2 melanoma, in the assay with ACHN renal, in the assay on OVCAR-8 ovarian, in the assay with OVCAR-5 ovarian and in the assay on DMS 114 small cell lung was over 100 µM throughout. Also, in the assay on CAKI-1 renal, the TGI is over 100 µM.

On to `COc1cc(-c2ccc(NC(=O)SCCC(=O)O)cc2OC)ccc1NC(=O)SCCC(=O)O`, for which the TGI in the assay on MALME-3M melanoma, in the assay with SK-MEL-2 melanoma, in the assay on ACHN renal, in the assay with OVCAR-8 ovarian, in the assay with OVCAR-5 ovarian and with DMS 114 small cell lung was over 100 µM each time. In the assay with CAKI-1 renal, the TGI was over 100 µM.

Take `COC1[C@H](NC(=O)OC(C)(C)C)C(=O)N1Cc1ccccc1` (stereo partly specified): the TGI with MALME-3M melanoma, in the assay with SK-MEL-2 melanoma, with ACHN renal, in the assay with OVCAR-8 ovarian, in the assay with OVCAR-5 ovarian and in the assay on DMS 114 small cell lung was over 100 µM each time.

On to `CCCCCCCCCCSC(=O)NC`, for which the TGI in the assay with MALME-3M melanoma is over 100 µM; with SK-MEL-2 melanoma, 69 µM; in the assay on ACHN renal, over 100 µM; in the assay with HOP-18 NSCLC, over 100 µM; in the assay on OVCAR-8 ovarian, 87.7 µM; in the assay on OVCAR-5 ovarian it was over 100 µM. Besides, the TGI in the assay with CAKI-1 renal is over 100 µM.

`CCOc1ccc(OCC)c([P+](c2ccccc2)(c2ccccc2)c2ccccc2)c1`: the TGI in the assay on MALME-3M melanoma stood at 23.3 µM; in the assay with ACHN renal, 10.5 µM; in the assay with HOP-18 NSCLC, 6.22 µM; in the assay on OVCAR-8 ovarian, 12.5 µM; in the assay on OVCAR-5 ovarian it was 6.91 µM; in the assay on DMS 114 small cell lung it was 3.18 µM. Besides, the TGI in the assay on CAKI-1 renal is 6.1 µM.

For the compound `CCOC(=O)C(NO)C(Sc1ccccc1)c1ccc(OC)cc1` (stereo unspecified), the TGI in the assay with MALME-3M melanoma, with SK-MEL-2 melanoma, with ACHN renal, with HOP-18 NSCLC, with OVCAR-8 ovarian and in the assay with OVCAR-5 ovarian was over 100 µM each time. This compound showed a TGI with DMS 114 small cell lung of over 100 µM.
